{
  "source": "patent US20110177054A1",
  "about": "“USE OF ENDO-LYSOSOMAL SYSTEM AND SECRETED VESICLES (EXOSOME-LIKE) IN TREATMENTS AND DIAGNOSTICS BASED ON SMALL RNA AND EXPERIMENTAL STUDY OF SMALL RNA” (priority 2008, published 2011)",
  "key": {"BIG2": {"target": "T1, BIG2 (Homo sapiens, UniProt Q9Y6D5)", "T1 construct": "endogenous in cells; host or cells: Mono-Mac6 monocytic cells", "T1 sequence (Q9Y6D5 whole entry)": "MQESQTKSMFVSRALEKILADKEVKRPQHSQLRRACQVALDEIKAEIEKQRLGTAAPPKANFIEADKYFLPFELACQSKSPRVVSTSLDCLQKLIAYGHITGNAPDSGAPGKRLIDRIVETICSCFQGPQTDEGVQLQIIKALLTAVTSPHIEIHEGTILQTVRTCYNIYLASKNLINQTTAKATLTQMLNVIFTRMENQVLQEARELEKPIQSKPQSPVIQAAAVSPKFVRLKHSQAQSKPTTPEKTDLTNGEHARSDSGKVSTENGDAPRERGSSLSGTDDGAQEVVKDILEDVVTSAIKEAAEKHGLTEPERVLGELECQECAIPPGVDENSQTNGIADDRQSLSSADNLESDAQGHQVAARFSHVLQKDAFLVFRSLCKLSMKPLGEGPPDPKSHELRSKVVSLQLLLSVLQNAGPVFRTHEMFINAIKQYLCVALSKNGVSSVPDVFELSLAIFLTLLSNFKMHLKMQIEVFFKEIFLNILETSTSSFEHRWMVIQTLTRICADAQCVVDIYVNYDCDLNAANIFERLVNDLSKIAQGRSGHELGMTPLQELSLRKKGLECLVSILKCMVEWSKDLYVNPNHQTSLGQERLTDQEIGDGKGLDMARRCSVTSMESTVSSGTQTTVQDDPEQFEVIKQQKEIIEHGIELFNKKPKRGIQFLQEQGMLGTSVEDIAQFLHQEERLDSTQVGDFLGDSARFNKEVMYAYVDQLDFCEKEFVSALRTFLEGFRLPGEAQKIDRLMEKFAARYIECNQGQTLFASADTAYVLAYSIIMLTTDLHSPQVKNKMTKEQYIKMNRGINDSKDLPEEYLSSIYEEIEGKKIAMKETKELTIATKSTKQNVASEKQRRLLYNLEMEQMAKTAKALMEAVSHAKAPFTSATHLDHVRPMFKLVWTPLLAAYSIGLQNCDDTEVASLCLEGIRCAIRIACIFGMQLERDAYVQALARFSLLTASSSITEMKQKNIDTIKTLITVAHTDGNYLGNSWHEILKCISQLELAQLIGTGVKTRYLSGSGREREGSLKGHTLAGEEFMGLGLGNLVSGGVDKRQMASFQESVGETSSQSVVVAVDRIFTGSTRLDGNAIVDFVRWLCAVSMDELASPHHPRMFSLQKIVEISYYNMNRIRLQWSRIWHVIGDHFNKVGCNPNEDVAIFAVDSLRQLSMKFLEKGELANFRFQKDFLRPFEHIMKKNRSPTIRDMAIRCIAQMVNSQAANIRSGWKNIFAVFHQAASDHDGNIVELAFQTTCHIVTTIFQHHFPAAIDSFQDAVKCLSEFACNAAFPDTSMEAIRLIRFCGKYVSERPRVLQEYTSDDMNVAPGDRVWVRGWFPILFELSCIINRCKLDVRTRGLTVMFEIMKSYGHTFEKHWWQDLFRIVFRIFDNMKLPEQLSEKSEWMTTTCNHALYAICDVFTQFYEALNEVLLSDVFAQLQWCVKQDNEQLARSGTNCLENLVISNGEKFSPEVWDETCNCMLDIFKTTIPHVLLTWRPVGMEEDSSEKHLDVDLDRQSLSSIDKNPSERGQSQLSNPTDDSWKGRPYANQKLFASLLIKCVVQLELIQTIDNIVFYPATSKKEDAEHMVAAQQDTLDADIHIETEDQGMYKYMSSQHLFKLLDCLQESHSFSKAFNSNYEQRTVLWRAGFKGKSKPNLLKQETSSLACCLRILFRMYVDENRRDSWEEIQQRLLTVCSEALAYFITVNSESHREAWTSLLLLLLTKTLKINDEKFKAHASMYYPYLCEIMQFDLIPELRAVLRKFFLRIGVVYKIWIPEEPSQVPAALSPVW", "assay": "Exosome release after RNAi of BIG2 (protein in purified exosome pellets)", "format": "cell-based", "method": "FIG. 5: Differential centrifugation enriches exosomes greatly. (A) Western blot of 50 μg of cell or exosome lysate with markers of exosomes (CD63, Tfr R, or Ub). (B) Cell counts and total protein quantitation of exosome pellets 36 h after transfection of cells with siRNA targeting BIG2 or control. (C) Electron microscopy of resuspended exosome pellets after uranyl acetate staining. (D) Dynamic light scattering analysis of purified exosome pellets resuspended in PBS (Phosphate buffered saline). Top graph represents five sets of measurements as size in nm (x-axis) as a function of relative number (y-axis) of particles detected. Bottom graph represents size in nm (x-axis) as a function of volume (y-axis). Measurements by volume exponentially amplify the representation of larger particles present.\nFIG. 9: Purified exosomes are enriched in GW182, but not Dcp1a or Ge-1. (a) Equal amounts of proteins from exosomes and cells were analyzed by western blotting for exosome-enriched protein, CD63. Electron microscopy of resuspended exosome pellets. […] Error bars, SEM of five measurements. (c) RNAi of BIG2 reduces the recovery of proteins in exosome preparations (paired t-test, n=4, p=0.0194, a=0.05). […] (d) Equal amounts of proteins from exosomes and whole cells were analyzed by western blotting. […]"}, "[1]": {"test_system": "miR-K12-4 target reporter", "assay": "Intercellular transfer of miR-K12-4 by exosomes (psiCHECK dual luciferase reporter in target cells)", "format": "cell-based", "details": "BIG2 siRNA delivered to exosome producing cells simultaneously with miR-K12-4 or miR-206 plasmids", "method": "FIG. 7: exosomes transfer active siRNA and miRNA to target cells in a BIG2-dependent manner. (A) Exosomes purified from cells transfected with GFP siRNA or control siRNA were incubated with cells transfected with GFP. GFP expression was examined 8 hours or 24 hours later by flow cytometry. GFP expression was calculated as 1-(GFP expression GFP siRNA exosomes/GFP expression control siRNA exosomes)×100. (n=3, p<0.05, paired t-test). (B) Exosomes purified from cells transfected with miR-206 or miR-K12-4 were incubated with cells transfected with a target site for miR-K12-4 inserted into the psiCHECK dual luciferase plasmid. Activity of luciferases was measured 8 hours later. Inhibition of Firefly luciferase expression was calculated as: 1-(Firefly luciferase/Renilla luciferase miR-K12-4 exosomes)/(Firefly luciferase/Renilla luciferase miR-206 exosomes)×100. (n=4, p<0.05, paired t-test). Error bars represent standard error of the mean.\nFIG. 8: Exosomes mediate transfer of miRNA activity in a BIG2-dependent manner. […] Activity of luciferases was measured after 8 hours (n=4, p=0.0287, t-test, a=0.05). […] GFP expression was measured by FACS analysis after 8 or 24 h (right). […]"}},
  "data": [
    {"substance": "BIG2 siRNA: siRNA targeting BIG2: CGAUGAAAUUAAAGCAGAA (SEQ ID NO. 11) (listed as RNA, chemistry not given here)", "values": [
      {"measurement": "recovery of proteins in exosome preparations", "setting": "BIG2; RNAi of BIG2 vs control, paired t-test n=4 p=0.0194", "result": "reduces"},
      {"measurement": "reduction of exosome release / vesicle yield", "setting": "BIG2; siRNA targeting BIG2 vs control siRNA, monocytic cells, transfection efficiency ~50%", "result": "~50", "unit": "%"},
      {"measurement": "knockdown of miR-K12-4 reporter expression in target cells by exosomes", "setting": "[1]", "result": "inhibited knockdown"}
    ]}
  ]
}
